We go through 17 compounds from ChEMBL document CHEMBL3808390, “Quinazolinones-Phenylquinoxaline hybrids with unsaturation/saturation linkers as novel anti-proliferative agents” (2016).

Holding throughout (assay type): functional
One assay concerns HeLa. The assay can be described thus: Antiproliferative activity against human HeLa cells assessed as growth inhibition after 48 hrs by SRB assay. Background: The SRB assay estimates cell density from bound dye.
In a further assay the test system is MDA-MB-231. In words: Antiproliferative activity against human MDA-MB-231 cells assessed as growth inhibition after 48 hrs by SRB assay. The conditions noted are these: MDA-MB-231, 48 h.
Assay [1] can be described thus: Antiproliferative activity against human IMR32 cells assessed as growth inhibition after 48 hrs by SRB assay. The settings on record: IMR-32, 48 h.
Assay [2] can be described thus: Antiproliferative activity against human MiaPaCa cells assessed as growth inhibition after 48 hrs by SRB assay. The conditions noted are these: MIA PaCa-2, 48 h.

With `COc1cc(OC)c(-c2nc3ccccc3c(=O)n2C/C=C/c2ccc(-c3cnc4ccccc4n3)cc2)c(OC)c1`, the GI50 in the assay on HeLa (read-out: GI50) was 2.5 µM; in the assay with HeLa (read-out: pGI50 (converted)), 2.5 µM; in the assay with MDA-MB-231 (read-out: GI50), under 0.01 µM; in assay [1] (read-out: GI50), 0.77 µM; in assay [1] (read-out: pGI50 (converted)), 0.771 µM; in assay [2] (read-out: GI50), 2.2 µM. The GI50 in assay [2] (read-out: pGI50 (converted)) is 2.2 µM.
Consider `COc1ccc(-c2nc3ccccc3c(=O)n2C/C=C/c2ccc(-c3cnc4ccccc4n3)cc2)c(F)c1`, for which the GI50 was 0.9 µM in the assay on HeLa (read-out: GI50); 0.902 µM in the assay on HeLa (read-out: pGI50 (converted)); under 0.01 µM with MDA-MB-231 (read-out: GI50); 1.2 µM in assay [1] (read-out: GI50); 1.2 µM in assay [1] (read-out: pGI50 (converted)); 28.6 µM in assay [2] (read-out: GI50). The GI50 in assay [2] (read-out: pGI50 (converted)) is 28.6 µM.
With `COc1ccc(-c2nc3ccccc3c(=O)n2C/C=C/c2ccc(-c3cnc4ccccc4n3)cc2)c(OC)c1`, the GI50 in the assay on HeLa (read-out: GI50) was 31.6 µM; in the assay with HeLa (read-out: pGI50 (converted)), 31.6 µM; in the assay with MDA-MB-231 (read-out: GI50), under 0.01 µM; in assay [1] (read-out: GI50), 6.3 µM; in assay [1] (read-out: pGI50 (converted)), 6.31 µM; in assay [2] (read-out: GI50), 13.6 µM. Also, the GI50 in assay [2] (read-out: pGI50 (converted)) was 13.6 µM.
As to `O=c1c2ccccc2nc(-c2ccc(C(F)(F)F)cc2)n1C/C=C/c1ccc(-c2cnc3ccccc3n2)cc1`, the GI50 is 17.7 µM with HeLa (read-out: GI50); 17.7 µM with HeLa (read-out: pGI50 (converted)); 1.8 µM in the assay with MDA-MB-231 (read-out: GI50); 1.8 µM with MDA-MB-231 (read-out: pGI50 (converted)); 5.3 µM in assay [1] (read-out: GI50); 5.31 µM in assay [1] (read-out: pGI50 (converted)). For the same compound, the GI50 in assay [2] (read-out: GI50) and in assay [2] (read-out: pGI50 (converted)) was 10 µM each time.
As to `COc1cccc(-c2nc3ccccc3c(=O)n2C/C=C/c2ccc(-c3cnc4ccccc4n3)cc2)c1`, the GI50 with HeLa (read-out: GI50) was 0.12 µM; in the assay with HeLa (read-out: pGI50 (converted)) it was 0.12 µM; with MDA-MB-231 (read-out: GI50) it was 1.25 µM; in the assay with MDA-MB-231 (read-out: pGI50 (converted)) it was 1.25 µM; in assay [1] (read-out: GI50) it was 0.32 µM; in assay [1] (read-out: pGI50 (converted)), 0.321 µM. For the same compound, the GI50 in assay [2] (read-out: GI50) and in assay [2] (read-out: pGI50 (converted)) was 2 µM in each case.
As for `Cc1ccc(-c2nc3ccccc3c(=O)n2C/C=C/c2ccc(-c3cnc4ccccc4n3)cc2)cc1`, the GI50 is 9.2 µM in the assay with HeLa (read-out: GI50); 9.2 µM in the assay on HeLa (read-out: pGI50 (converted)); 1.24 µM in the assay on MDA-MB-231 (read-out: GI50); 1.24 µM in the assay with MDA-MB-231 (read-out: pGI50 (converted)); 2.2 µM in assay [1] (read-out: GI50); 2.2 µM in assay [1] (read-out: pGI50 (converted)). For the same compound, the GI50 in assay [2] (read-out: GI50) and in assay [2] (read-out: pGI50 (converted)) was 11.4 µM throughout.
For the compound `O=c1c2ccccc2nc(-c2ccccc2)n1C/C=C/c1ccc(-c2cnc3ccccc3n2)cc1`, the GI50 was 5.1 µM in the assay with HeLa (read-out: GI50); 5.11 µM in the assay with HeLa (read-out: pGI50 (converted)); 6.4 µM in the assay on MDA-MB-231 (read-out: GI50); 6.41 µM with MDA-MB-231 (read-out: pGI50 (converted)); 1.01 µM in assay [1] (read-out: GI50); 1.01 µM in assay [1] (read-out: pGI50 (converted)). Moreover, the GI50 in assay [2] (read-out: GI50) was 2.8 µM; in assay [2] (read-out: pGI50 (converted)) it was 2.81 µM.
For the compound `O=c1c2ccccc2nc(-c2ccc([N+](=O)[O-])cc2)n1C/C=C/c1ccc(-c2cnc3ccccc3n2)cc1`, the GI50 in the assay on HeLa (read-out: GI50) was 0.9 µM; with HeLa (read-out: pGI50 (converted)) it was 0.902 µM; in the assay on MDA-MB-231 (read-out: GI50), 0.14 µM; with MDA-MB-231 (read-out: pGI50 (converted)), 0.14 µM; in assay [1] (read-out: GI50), under 0.01 µM; in assay [2] (read-out: GI50), 6.1 µM. For the same compound, in assay [2] (read-out: pGI50 (converted)), the GI50 is 6.11 µM.
With `Cc1nc2ccccc2c(=O)n1CCCc1ccc(-c2cnc3ccccc3n2)cc1`, the GI50 is 0.032 µM in the assay with HeLa (read-out: GI50); 0.0321 µM in the assay with HeLa (read-out: pGI50 (converted)); 0.62 µM in the assay on MDA-MB-231 (read-out: GI50); 0.621 µM in the assay on MDA-MB-231 (read-out: pGI50 (converted)); 0.22 µM in assay [1] (read-out: GI50); 0.22 µM in assay [1] (read-out: pGI50 (converted)). Also, the GI50 in assay [2] (read-out: GI50) and in assay [2] (read-out: pGI50 (converted)) was 1.2 µM in each case.
With `O=c1c2ccccc2nc(-c2ccc(F)cc2)n1C/C=C/c1ccc(-c2cnc3ccccc3n2)cc1`, the GI50 was 16.1 µM in the assay with HeLa (read-out: GI50); 16.1 µM with HeLa (read-out: pGI50 (converted)); 1.7 µM with MDA-MB-231 (read-out: GI50); 1.7 µM in the assay with MDA-MB-231 (read-out: pGI50 (converted)); 65 µM in assay [1] (read-out: GI50); 65 µM in assay [1] (read-out: pGI50 (converted)). Besides, the GI50 in assay [2] (read-out: GI50) is under 0.01 µM.
For the compound `COc1ccc(-c2nc3ccccc3c(=O)n2C/C=C/c2ccc(-c3cnc4ccccc4n3)cc2)cc1`, the GI50 with HeLa (read-out: GI50) is 1.2 µM; in the assay with HeLa (read-out: pGI50 (converted)), 1.2 µM; in the assay with MDA-MB-231 (read-out: GI50), 0.64 µM; in the assay with MDA-MB-231 (read-out: pGI50 (converted)) it was 0.641 µM; in assay [1] (read-out: GI50), 2.8 µM; in assay [1] (read-out: pGI50 (converted)), 2.81 µM. For the same compound, the GI50 in assay [2] (read-out: GI50) and in assay [2] (read-out: pGI50 (converted)) was 2.1 µM throughout.
`O=c1c2ccccc2nc(-c2ccc(Cl)cc2)n1C/C=C/c1ccc(-c2cnc3ccccc3n2)cc1`: the GI50 is 69.5 µM in the assay with HeLa (read-out: GI50); 69.5 µM with HeLa (read-out: pGI50 (converted)); 0.57 µM with MDA-MB-231 (read-out: GI50); 0.57 µM in the assay with MDA-MB-231 (read-out: pGI50 (converted)); under 0.01 µM in assay [1] (read-out: GI50); 6.4 µM in assay [2] (read-out: GI50). Further, in assay [2] (read-out: pGI50 (converted)), the GI50 was 6.41 µM.
Take `COc1ccc(OC)c(-c2nc3ccccc3c(=O)n2C/C=C/c2ccc(-c3cnc4ccccc4n3)cc2)c1`: the GI50 was 0.038 µM in the assay with HeLa (read-out: GI50); 0.038 µM in the assay on HeLa (read-out: pGI50 (converted)); 1.36 µM with MDA-MB-231 (read-out: GI50); 1.36 µM with MDA-MB-231 (read-out: pGI50 (converted)); 0.28 µM in assay [1] (read-out: GI50); 0.282 µM in assay [1] (read-out: pGI50 (converted)). Moreover, the GI50 in assay [2] (read-out: GI50) and in assay [2] (read-out: pGI50 (converted)) was 1.8 µM each time.
As to `O=c1c2ccccc2nc(-c2ccc(Cl)cc2Cl)n1C/C=C/c1ccc(-c2cnc3ccccc3n2)cc1`, the GI50 with HeLa (read-out: GI50) was over 100 µM; in the assay with MDA-MB-231 (read-out: GI50) it was 0.4 µM; in the assay with MDA-MB-231 (read-out: pGI50 (converted)), 0.401 µM; in assay [1] (read-out: GI50), 2.6 µM; in assay [1] (read-out: pGI50 (converted)), 2.6 µM; in assay [2] (read-out: GI50), 4.4 µM. The GI50 in assay [2] (read-out: pGI50 (converted)) was 4.41 µM.
As to `CCOc1ccc(-c2nc3ccccc3c(=O)n2C/C=C/c2ccc(-c3cnc4ccccc4n3)cc2)cc1`, the GI50 in the assay with HeLa (read-out: GI50) was over 100 µM; in the assay on MDA-MB-231 (read-out: GI50), over 100 µM; in assay [1] (read-out: GI50), 0.47 µM; in assay [1] (read-out: pGI50 (converted)), 0.471 µM; in assay [2] (read-out: GI50), 2.2 µM; in assay [2] (read-out: pGI50 (converted)) it was 2.2 µM.
For `COc1cccc2c1C(=O)c1c(O)c3c(c(O)c1C2=O)C[C@@](O)(C(=O)CO)C[C@@H]3O[C@H]1C[C@H](N)[C@H](O)[C@H](C)O1` [DOXORUBICIN], the GI50 in the assay on HeLa (read-out: GI50) is 0.073 µM; in the assay with HeLa (read-out: pGI50 (converted)), 0.0731 µM; in the assay on MDA-MB-231 (read-out: GI50) it was 0.085 µM; in the assay with MDA-MB-231 (read-out: pGI50 (converted)) it was 0.0851 µM; in assay [1] (read-out: GI50), 0.023 µM; in assay [1] (read-out: pGI50 (converted)), 0.023 µM. Moreover, the GI50 in assay [2] (read-out: GI50) and in assay [2] (read-out: pGI50 (converted)) was 0.097 µM throughout.
As to `CC(=O)O[C@H]1C(=O)[C@@]2(C)[C@H]([C@H](OC(=O)c3ccccc3)[C@]3(O)C[C@H](OC(=O)[C@H](O)[C@@H](NC(=O)c4ccccc4)c4ccccc4)C(C)=C1C3(C)C)[C@]1(OC(C)=O)CO[C@@H]1C[C@@H]2O` [PACLITAXEL], the GI50 in the assay on HeLa (read-out: GI50) is 0.025 µM; in the assay with HeLa (read-out: pGI50 (converted)), 0.025 µM; in the assay on MDA-MB-231 (read-out: GI50) it was 0.091 µM; in the assay on MDA-MB-231 (read-out: pGI50 (converted)), 0.0912 µM; in assay [1] (read-out: GI50) it was 0.075 µM; in assay [1] (read-out: pGI50 (converted)) it was 0.0752 µM. Also, the GI50 in assay [2] (read-out: GI50) was 0.056 µM; in assay [2] (read-out: pGI50 (converted)) it was 0.0561 µM.
